Results published in patent publication US9307768B2, “Synergistic combination of a flurochloridone compound and IPBC for dry film protection” (priority 2013, dated 2016).

Legend:
[1] = system: Chlorella sp. ATCC 7516; assay: Algal efficacy testing of dry paint film (modified ASTM 5589, 6-well plates); assay type: cell-based; conditions: 3 weeks; for Total conc: total biocide concentration in paint reaching pass level (at least 75% inhibition)
Protocol: (§1) Slurries containing 33% antimicrobial active ingredient (flurochloridone) were post added to a white, acrylic/silicone based outdoor paint free of biocides to give a total active ingredient concentration of 10000 and 1000 ppm respectively. ROCIMA™ 250 (40% IPBC) was post added to a white, acrylic/silicone based outdoor paint free of biocides to give a total active ingredient concentration of 10000 and 1000 ppm respectively. These paints were then diluted with an antimicrobial free acrylic/silicone based paint and mixed to prepare targeted concentrations of antimicrobial compounds for the testing. The total biocides concentrations tested were 125, 250, 500, 1000, 2000 and 5000 ppm. After biocides addition or dilution, the paints were mixed 90 seconds with the horse power shaker (AXEL 75M3372/ Agitateur SO-10MI) until uniformity was achieved. Paints containing different antimicrobial compounds at the same levels were mixed together in order to obtain the desired ratio of antimicrobial compounds. After one day, the paints were applied to Schleicher & Schuell filter paper at 280 μm wet film thickness and dried for 3 days at room temperature avoiding direct exposure to sunlight. Square discs (1.6 cm×1.6 cm) were cut out from each panel and were used as the substrate for algal efficacy tests. This sample size allowed for an agar border when the sample disc was placed into the well of the test plate.
(§2) Algal efficacy was tested according to modified ASTM 5589 which is a standard accelerated test method for determining resistance of various coatings (including paints) to algal defacement. To accommodate for high-throughput screening, this method was scaled down from petri dishes to 6-well plates. Bold Modified Basal Freshwater Nutrient Solution was used as growth medium. A single coated filter paper coupon was placed with a pair of sterile forceps at the center of the agar plug (on top) with the painted surface facing upwards. Algal inoculums were prepared by mixing equal concentrations (1×10^6 cfu/ml) and equal volumes of exponentially growing algae cultures.
(§3) Each well that contains a tested coupon was inoculated with 1750 μl of algal suspensions (1×10^6 cfu/ml) making sure that the whole surface (paint film as well as the agar surrounding it) was evenly covered. The plates were incubated at room temp (21° C.-25° C.) with cyclic exposure to light and dark phases, for a period of three weeks. The total area inhibited was evaluated at the end of each week according to percent area covered in 5% increments.
(§4) At the end of the three week incubation period, the samples were scored for percent inhibition regarding color intensity compared to the blank sample.
(§5) The SI is calculated based on F. C. Kull et.
(§6) The minimal targeted inhibition was set at 75%, meaning a coupon with at least 75% algal growth inhibition was considered as a pass.

[2] = system: Stichococcus bacillaris SAG 379-1a; assay: as above; assay type: cell-based; conditions: 3 weeks; for Total conc: total biocide concentration in paint reaching pass level (at least 75% inhibition)
Protocol: as §1, §2, §3, §4, §5, §6

| SMILES | inhibition at 5000 ppm ([1]; 504 h, total conc 5000 ppm) [%] | Total conc [1] [ppm] | inhibition at 5000 ppm ([2]; Stichococcus bacillaris, 504 h, total conc 5000 ppm) [%] | Total conc [2] [ppm] | % inhibition ([1]; total conc 2000 ppm) [%] | % inhibition ([2]; total conc 2000 ppm) [%] |
| --- | --- | --- | --- | --- | --- | --- |
| O=C1C(Cl)C(CCl)CN1c1cccc(C(F)(F)F)c1 (centres unmarked) [Flurochloridone, 3-chloro-4-(chloromethyl)-1-[3-(trifluoromethyl)phenyl]-2-pyrrolidinone] | 85 | 5000 | 90 | 5000 |  |  |
| CCCCNC(=O)OCC#CI [IPBC, 3-Iodo-2-propynyl-butylcarbamate] |  | 2000 |  | 2000 | 85 | 90 |
